GI50 and TGI data for 11 compounds are collected here from PubChem BioAssay (NCI).

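The compound was tested at five concentrations on cells cultured in 96-well plates, with a 48-hour exposure period. Here, GI50 denotes the concentration required for 50% inhibition of growth. At the TGI there is no net growth.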

Test systems include TK-10 renal; SNB-75 CNS; OVCAR-8 ovarian; UACC-257 melanoma; COLO 205 colon; OVCAR-3 ovarian; 786-0 renal; SK-MEL-28 melanoma.
Holding throughout (assay): inhibition of tumour cell growth, NCI panel, 48 h

As for `CSc1ccc(C2=NN(C(C)=O)C(c3ccc(-c4ccc(Cl)cc4)o3)C2)cc1` (configuration not stated), the GI50 with TK-10 renal is 37.3 µM; in the assay on SNB-75 CNS, 25.4 µM; in the assay on OVCAR-8 ovarian, 81.7 µM; in the assay with UACC-257 melanoma, 77 µM; in the assay on COLO 205 colon it was 36.2 µM; in the assay with OVCAR-3 ovarian it was 21 µM. Also, the GI50 in the assay with 786-0 renal was 38.8 µM; with SK-MEL-28 melanoma, 86.2 µM. Also, the TGI with TK-10 renal was more than 100 µM; in the assay with SNB-75 CNS, more than 100 µM; with OVCAR-8 ovarian it was more than 100 µM; in the assay with UACC-257 melanoma, more than 100 µM; in the assay on COLO 205 colon, more than 100 µM; in the assay with OVCAR-3 ovarian, 80.9 µM. For the same compound, the TGI with 786-0 renal and in the assay on SK-MEL-28 melanoma was more than 100 µM each time.

With `COC(=O)c1cc(-c2ccc(OC)c(OC)c2)[nH]c1N/N=C/c1c(Cl)cccc1Cl`, the GI50 in the assay with TK-10 renal is 1.64 µM; in the assay on SNB-75 CNS it was 0.379 µM; with OVCAR-8 ovarian it was 1.31 µM; in the assay with UACC-257 melanoma, 0.723 µM; in the assay with COLO 205 colon, 0.901 µM; in the assay with OVCAR-3 ovarian it was 0.366 µM. Besides, the figures for the GI50 with 786-0 renal and in the assay with SK-MEL-28 melanoma were 0.83 µM and 0.97 µM, respectively. Besides, the TGI is 9.47 µM in the assay with TK-10 renal; 2.21 µM with SNB-75 CNS; 8.67 µM with OVCAR-8 ovarian; more than 23.1 µM in the assay on UACC-257 melanoma; 4.95 µM in the assay on COLO 205 colon; 1.87 µM in the assay with OVCAR-3 ovarian. Further, the TGI in the assay with 786-0 renal was found to be 4.32 µM; in the assay on SK-MEL-28 melanoma, 71.2 µM.

In the case of `CC(CO)(Nc1ccc([N+](=O)[O-])cc1[N+](=O)[O-])C(=O)O` (configuration not stated), the TGI in the assay with TK-10 renal is more than 100 µM; with OVCAR-8 ovarian, more than 100 µM; in the assay with UACC-257 melanoma, 69.2 µM; with COLO 205 colon it was 32.8 µM; in the assay on OVCAR-3 ovarian, 42 µM; with 786-0 renal, more than 100 µM. The same compound showed a TGI in the assay on SK-MEL-28 melanoma of 43.5 µM.

With `Cn1ccnc1Oc1ccc(Cl)cc1`, the TGI with TK-10 renal stood at 32.6 µM; in the assay on SNB-75 CNS, 51.8 µM; in the assay with OVCAR-8 ovarian, 22.4 µM; in the assay with UACC-257 melanoma, 21.5 µM; in the assay with COLO 205 colon, 25.7 µM; in the assay with 786-0 renal, 24.7 µM. The TGI in the assay with SK-MEL-28 melanoma came out at 27.4 µM.

`C/C(=N\O)c1cccc(Nc2cc(-n3ccnc3)c3ccccc3n2)c1`: the GI50 with TK-10 renal was 15.6 µM; in the assay on SNB-75 CNS, 11.4 µM; in the assay with COLO 205 colon, 13 µM; in the assay on OVCAR-3 ovarian it was 14.7 µM; with 786-0 renal, 12.2 µM; with SK-MEL-28 melanoma it was 14.3 µM. In addition, the TGI in the assay on TK-10 renal worked out at 38.8 µM; in the assay on SNB-75 CNS, 26.8 µM; in the assay on COLO 205 colon it was 29.1 µM; in the assay with OVCAR-3 ovarian, 39.6 µM; with 786-0 renal, 28.7 µM; in the assay with SK-MEL-28 melanoma, 29.8 µM.

With `O=c1c2cc(F)ccc2sc2c(NCCCNCCO)nc3ccccc3c12`, the GI50 in the assay on TK-10 renal is 1.89 µM; with SNB-75 CNS, 1.5 µM; in the assay with UACC-257 melanoma it was 1.98 µM; with COLO 205 colon it was 2.08 µM; in the assay with OVCAR-3 ovarian, 1.9 µM; in the assay on 786-0 renal it was 1.53 µM. Besides, in the assay with SK-MEL-28 melanoma, the GI50 is 1.75 µM. Also, the TGI in the assay with TK-10 renal came out at 3.53 µM; in the assay with SNB-75 CNS it was 2.96 µM; in the assay on UACC-257 melanoma it was 3.94 µM; in the assay with COLO 205 colon, 4.66 µM; in the assay with OVCAR-3 ovarian, 3.55 µM; in the assay with 786-0 renal, 3.07 µM. In the assay with SK-MEL-28 melanoma, this compound returned a TGI of 3.25 µM.

As to `C[n+]1c2ccccc2nc2c(N)cc(N)cc21`, the GI50 is 64.9 µM in the assay with TK-10 renal; 5.2 µM in the assay with SNB-75 CNS; 3.49 µM in the assay with COLO 205 colon; 3.69 µM in the assay on OVCAR-3 ovarian; 5.43 µM in the assay on 786-0 renal; 10.3 µM in the assay with SK-MEL-28 melanoma. Also, the TGI in the assay with TK-10 renal was more than 100 µM; in the assay with SNB-75 CNS it was 18.7 µM; in the assay on COLO 205 colon, 19.4 µM; in the assay on OVCAR-3 ovarian, 22.8 µM; with 786-0 renal it was more than 100 µM; with SK-MEL-28 melanoma, 24.1 µM.

Consider `COc1cc(-c2nn(-c3cccc(NC(=O)CCN4CCN(Cc5ccccc5)CC4)c3)cc2-c2ccncc2)ccc1Cl`, for which the GI50 in the assay on TK-10 renal was 2.93 µM; with SNB-75 CNS, 1.55 µM; in the assay on OVCAR-8 ovarian, 2.68 µM; in the assay with UACC-257 melanoma, 1.7 µM; in the assay with OVCAR-3 ovarian it was 0.395 µM; in the assay with 786-0 renal, 1.33 µM. Further, in the assay on SK-MEL-28 melanoma, the GI50 was 1.33 µM. Moreover, the TGI in the assay on TK-10 renal turned out to be 12.2 µM; in the assay with SNB-75 CNS it was 8.73 µM; with OVCAR-8 ovarian it was 11.1 µM; in the assay with UACC-257 melanoma, 3.55 µM; with OVCAR-3 ovarian, 1.77 µM; in the assay with 786-0 renal it was 3.02 µM. In addition, in the assay on SK-MEL-28 melanoma, the TGI worked out at 2.84 µM.

As for `O=C(O)c1ccccc1NC(=S)c1ccccc1`, the TGI with TK-10 renal, with OVCAR-8 ovarian, in the assay on UACC-257 melanoma, with COLO 205 colon, with OVCAR-3 ovarian and in the assay on 786-0 renal was more than 100 µM in each case.

`C[CH2][Hg][S]c1ccccc1C(=O)O`: the GI50 with TK-10 renal was 1.42 µM; in the assay with SNB-75 CNS, 2.98 µM; in the assay on UACC-257 melanoma it was 1.18 µM; with COLO 205 colon, 1.24 µM; in the assay on OVCAR-3 ovarian, 0.871 µM; in the assay with 786-0 renal it was 1.59 µM. Further, in the assay on SK-MEL-28 melanoma, the GI50 is 1.71 µM. In addition, the TGI with TK-10 renal turned out to be 2.73 µM; with SNB-75 CNS it was 10.8 µM; in the assay on UACC-257 melanoma it was 2.45 µM; in the assay with COLO 205 colon, 2.86 µM; in the assay on OVCAR-3 ovarian, 2.09 µM; in the assay with 786-0 renal, 2.95 µM. Further, the TGI with SK-MEL-28 melanoma was 3.69 µM.

Take `N#CCCNc1nonc1-c1nc2ccccc2n1CC(=O)c1ccc(NC(=O)[C@@H](N)CCCCN)cc1`: the GI50 in the assay with TK-10 renal is 11.9 µM; in the assay with SNB-75 CNS it was 0.0106 µM; in the assay on OVCAR-8 ovarian it was 0.0554 µM; in the assay on UACC-257 melanoma, more than 100 µM; in the assay with COLO 205 colon, 0.0273 µM; in the assay with OVCAR-3 ovarian it was 0.0235 µM. The GI50 with 786-0 renal is 0.0557 µM. Further, the TGI is more than 100 µM with TK-10 renal; more than 100 µM in the assay with SNB-75 CNS; more than 100 µM with OVCAR-8 ovarian; more than 100 µM in the assay with UACC-257 melanoma; 0.0709 µM in the assay on COLO 205 colon; 0.0542 µM in the assay on OVCAR-3 ovarian. The compound further gave a TGI in the assay on 786-0 renal of more than 100 µM.
